Assay results published in patent US7148250B2, “Indoles as NAALADase inhibitors” (Guilford Pharmaceuticals Inc., priority 2001, dated 2006).

How the values were obtained:
[1] = system: Brown Norway rats with unilateral elevation of intraocular pressure; test: Experimental rat glaucoma (IOP elevation), optic nerve fiber counting; type: in vivo; conditions: 10 mg/kg i.p. daily
Description: (§1) All experiments complied with the Association for Research in Vision and Ophthalmology Statement for the Use of Animals in Ophthalmic and Vision Research. 82 male Brown Norway rats (Rattus norvegicus), each weighing approximately 250 gm, were treated using procedures approved by the Animal Care Committee of the Johns Hopkins University School of Medicine. The rats were housed with a 12 hour light/12 hour dark cycle and fed ad libitum.
EXPERIMENTAL GLAUCOMA: Unilateral elevation of intraocular pressure (“IOP”) was produced in 56 rats by microinjection of hypertonic saline into episcleral veins, following procedures described in Morrison, J. et al., IOVS (March 1998) 39:526–531. Beginning on the day of IOP elevation, the rats were treated daily with intraperitoneal injections of either a vehicle (23 rats with 50 mM HEPES-buffered saline) or a NAALADase inhibitor (11 rats with 10 mg/kg of Compound A and 22 rats with 10 mg/kg of Compound B). 11 saline treated rats, 11 Compound A treated rats and 11 Compound B treated rats were sacrificed at 8 weeks, and the remaining rats at 12 weeks, after initial IOP elevation.
(§2) OPTIC NERVE COUNTING: The rats were sacrificed by exsanguination under deep pentobarbital anesthesia. They were perfused through the heart with 2% paraformaldehyde/2% glutaraldehyde in 0.1 M phosphate buffer, pH 7.2, and the eyes with attached optic nerves were removed. A cross-section of the optic nerve from both experimental (glaucoma or transection) and control eyes was removed 1.5 mm posterior to the globe, 1 mm in thickness, and post-fixed in 2% osmium tetroxide in buffer. These were processed into epoxy resin, sectioned at 1 micron and stained with toluidine blue.
(§3) The area of the optic nerve cross-section was measured by outlining its outer border at 10× magnification on an image analysis system (Universal Imaging Corp., Westchester, Pa.) with Synsys digital camera and Metamorph software. Three area measurements were taken and the mean value was determined. To measure the density and fiber diameter distributions, images were captured with a 100× phase contrast objective from 10 different areas of each nerve. These were edited to eliminate non-neural objects and the size of each axon internal to the myelin sheath (its minimum diameter) and the density of axons/square mm were calculated for each image and nerve. The mean density was multiplied by total nerve area to yield fiber number for each nerve. The total fiber number in glaucoma or transection nerves was compared to the normal, fellow eye of each rat to yield a percent loss value. The number of axons counted among the 10 images was an approximately 20% sample of the 80–90,000 axons in normal rat nerves. The person measuring axon number was masked to the protocol conducted on the nerves.

[2] = system: Brown Norway rats with unilateral optic nerve transection; test: Optic nerve transection, optic nerve fiber counting; type: in vivo, Rattus norvegicus; conditions: for FIBER NUMBER ± SEM / PERCENT DIFFERENCE ± SEM in fiber number between transected and normal eye: 10 mg/kg i.p. daily
Description: as §1
OPTIC NERVE TRANSECTION: The optic nerve was transected unilaterally in 26 rats under intraperitoneal pentobarbital anesthesia. The conjunctiva was opened with scissors and the optic nerve exposed by traction on extraocular muscles. The transection was performed with microscissors 5 mm posterior to the globe, with specific attention to avoidance of injury to major ocular blood vessels. Immediately after transection, the retina was examined ophthalmoscopically to assure that the retinal arterial blood supply was not disrupted. The conjunctiva was closed with absorbable suture and the eye dressed with antibiotic ointment. Beginning on the day of transection, the rats were treated daily with intraperitoneal injections of either a vehicle (9 rats with 50 mM HEPES-buffered saline) or a NAALADase inhibitor (8 rats with 10 mg/kg of Compound A and 9 rats with 10 mg/kg of Compound B). 5 saline treated rats, 3 Compound A treated rats and 4 Compound B treated rats were sacrificed at 2 weeks, and the remaining rats at 4 weeks, after transection.
as §2, §3

[3] = system: transgenic HD mice of the N171-82Q strain; test: Transgenic mouse model of Huntington's disease (rotarod, locomotion, survival); type: in vivo
Description: Transgenic HD mice of the N171-82Q strain and non-transgenic littermates were treated with NAALADase inhibitor Compound B (30 mg/kg) or a vehicle from 10 weeks of age. The mice were placed on a rotating rod (“rotarod”). The length of time at which the mouse fell off the rotarod was recorded as a measure of motor coordination. […] The treatment with Compound B had no effect on the rotarod performance of normal non-HD mice.
The total distance traveled by the mice was also recorded as a measure of overall locomotion.
The effects of Compound B and vehicle on the survival of transgenic HD mice (N171-82Q) were evaluated. Thirteen mice (six male and seven female) were assigned to the Compound B treatment group, and fourteen mice (six male and eight female) were assigned to the vehicle treatment group. Treatment was continued until all the mice died.

[4] = 2 weeks survival after transection
[5] = 4 weeks survival after transection

O=C(O)CCC(CCCS)C(=O)O (stereo not shown) [Compound B, 2-(3-sulfanylpropyl)-pentanedioic acid]
FIBER NUMBER ± SEM ([1]; 8 week group): 80785 ± 2121
PERCENT DIFFERENCE ± SEM in fiber number between glaucoma and normal eye ([1]; 8 week group, positive = fewer fibers in glaucoma eye): −0.82 ± 2.97%
FIBER NUMBER ([1]; 12 week group): 90504 ± 1718
PERCENT DIFFERENCE in fiber number between glaucoma and normal eye ([1]; 12 week group, positive = fewer fibers in glaucoma eye): −3.21 ± 2.86%
remaining axons relative to saline-treated rats ([2]; 2 weeks after transection): twice
FIBER NUMBER ± SEM [2, 4]: 19,550 ± 5,091
PERCENT DIFFERENCE ± SEM in fiber number between transected and normal eye [2, 4]: 75.3 ± 6.6%
FIBER NUMBER ± SEM [2, 5]: 5,162 ± 2,509
PERCENT DIFFERENCE ± SEM in fiber number between transected and normal eye [2, 5]: 93.4 ± 3.1%
survival time versus vehicle treated counterparts ([3]; female transgenic HD mice (p-value=0.03)): significantly prolonged survival time
rotarod performance ([3]; normal non-HD mice, 30 mg/kg): no effect
median survival time ([3]; transgenic HD mice (N171-82Q), both sexes, not significant versus vehicle (p=0.07)): 184 days
rotarod performance (time on rotarod) versus vehicle ([3]; transgenic HD mice, 30 mg/kg from 10 weeks of age): stayed longer on the rotarod
